The test system of test [1] is actin cytoskeleton of MDA-MB-231, BT474 and MCF10A cells. Nature of the test: Actin cytoskeleton confocal imaging after pulsed AC magnetic field. Format: cell-based, human. The conditions noted are these: cancerous cells, CD alone (100 nM). The procedure:
For confocal studies, MDA-MB-231, BT474 and MCF10A cells were plated on Lab-Tek II Chamber slides at a concentration of 1×10^5 cells/well and allowed to grow overnight. The cells were then treated with 0.1 mg/mL Alexa Fluor® 647-PAA-P85-MNP for 24 h followed by thorough washing with acid saline and replacement with complete media. The cells were incubated with 100 nM CD for 1 h to enact cytoskeletal damage in a nonlethal capacity. After washing, the cells were exposed to the pulsed AC magnetic field (50 Hz, 50 kA/m) (10 min on, 5 min off, total exposure 30 min). Appropriate controls included cells not exposed to the magnetic field and untreated cells. Cells were then incubated at 37° C. for 24 h, fixed using 4% paraformaldehyde and permeabilized using 0.5% Triton-X 100. Fixed cells were stained with ActinGreen 488 (Life Technologies, Carlsbad, Calif.), a phalloidin-based actin stain and Hoechst 33342. Images were acquired using a Zeiss CLSM 710 Spectral Confocal Laser Scanning Microscope with the 63×/1.4 Oil Plan Apo lens.

Test [2] relates to lysosomes of MDA-MB-231, BT474 and MCF10A cells. Nature of the test: Lysosomal membrane permeabilization, acridine orange assay. The format is cell-based, human. The conditions noted are these: positive control, 150 μM, three hours, no field. The procedure: MDA-MB-231, BT474 and MCF10A cells were seeded at 1×10^5 cells/well in 8-well Lab-Tek II Chamber slides. Cells were allowed to adhere for several days and were treated with PAA-P85-MNPs at a concentration of 0.1 mg/mL. After 24 h, the cells were washed and then exposed to an AC magnetic field (50 Hz, 50 kA/m) using the pulsed exposure regime for a total of 30 min. Three hours post exposure, cells were treated for 15 min with 10 μg/mL acridine orange stain. The cells were washed 3× with PBS and kept in complete media for imaging. Positive control cells were treated with 150 μM hydrogen peroxide for 3 h followed by thorough washing and staining with acridine orange. Live cell images were acquired using a Zeiss CLSM 710 Spectral Confocal Laser Scanning Microscope with the 63×/1.4 Oil Plan Apo lens.

The values that follow come from patent US20190054186A1, “Magnetic Nanoparticle-Polymer Complexes and uses Thereof” (The University of North Carolina at Chapel Hill, priority 2016, published 2019).

As to `C=C1[C@@H](C)[C@H]2[C@H](Cc3ccccc3)NC(=O)[C@]23[C@H](OC(C)=O)/C=C/[C@@](C)(O)C(=O)[C@@H](C)C/C=C/[C@H]3[C@@H]1O` [CD, Cytochalasin D], in test [1], the actin cytoskeleton structure entry is “No significant differences in the cytoskeleton structure”.
With `OO` [hydrogen peroxide], in test [2], the “lysosomal membrane permeabilization (acridine orange)” value was “loss of punctuate red fluorescence”.
